Reference: paper PMC9276671, “A first-in-human Phase I dose-escalation trial of the novel therapeutic peptide, ALM201, demonstrates a favourable safety profile in unselected patients with ovarian cancer and other advanced solid tumours” (British Journal of Cancer, 2022)
pIC50: −log10 of the molar value. Read-outs that look alike come from different tables or passages of the source. No end group written: not given here.

Legend:
[1] = tested on: angiogenesis and cell migration and invasion; conditions: cited from earlier work
Source text: Early investigations into the mechanism of action for ALM201 reported that the peptide is internalised into CD44-expressing cells and targets microtubules inhibiting migration and invasion in cancer and endothelial cells, similar to vascular disrupting agents. However, it was unclear if this was the principal mechanism of inhibiting angiogenesis or if other factors, such as inhibiting endothelial cell migration and inva ...

[2] = Dog, 5mg/kg SC, male animals; ref Investigator brochure (IB); cited from earlier work
[3] = tested on: HMEC-1, a human vascular endothelial cell-line; conditions: protocol Table 3; ref Investigator brochure (IB); read-out: Wound scrape IC50; cited from earlier work
Source text: page 37: Almac Discovery Confidential There are five main histological subtypes of ovarian cancer differing in tissue of origin, stage of presentation, sensitivity to chemotherapy, survival and driver genetic mutations. The most aggressive of these subtypes are the high grade serous tumours. […] ALM201 also had no effect on cytok ...

[4] = Urinary excretion of unchanged ALM201 (LC-MS/MS); assay type: in vivo; conditions: human, sc, patients with positive urine concentrations, urine collected over 6 h after dosing, day 1 cycle 1, read-out: Amount excreted in the urine, % of the administered dose, mean (±SD)
xenograft = conditions: rat xenograft model, 3 mg/kg; ref Investigator brochure (IB); cited from earlier work
Experimental: page 41: Almac Discovery Confidential 1.5 Rationale for Dose Selection Based on GLP, 28-day, repeat dose toxicology studies in the dog and rat, the NOAEL for ALM201 was not defined at the maximum dose evaluated of 50 mg/kgxiv. Therefore, based on standard allometric scaling based on the FDA guidelines (FDA, 2005 ), it is predicted that a human equivalent dose (HED) range of 8–28 mg/kg could be given without any drug-related adverse effects. Assuming a starting dose calculation based on a 10-fold safety margin in the most conservative model (the rat); the starting dose would be 0.8 mg/kg. Due t ...

[5] = Rat, 5mg/kg SC, male animals; ref Investigator brochure (IB); cited from earlier work

For IRQQPRDPPTETLELEVSPDPAS [ALM201], the “Activity in standard in vitro and ex vivo assays of angiogenesis, cell migration and invasion” value [1] is given as “low picomolar activity”, the AUC24 [2] is given as 7300 ng·h/mL and the Cmax [2] is given as 2030 ng/mL. The Half-life [2] was 144 min, the Tmax [2] was 60 min and the pIC50 [3] was 11.05. The dose excreted [4] was 0.074%, the Anti-tumour activity (xenograft) was “significant anti-tumour” and the AUC24 [5] was 4320 ng·h/mL. The Cmax [5] was 3400 ng/mL, the Half-life [5] was 36 min and the Tmax [5] was 30 min.
